What follows are compounds tested against T1, Interleukin-1 receptor-associated kinase 4 (Homo sapiens, UniProt Q9NWZ3) (assay: IRAK4 Inhibition Assay).
T1 sequence (Q9NWZ3 whole entry): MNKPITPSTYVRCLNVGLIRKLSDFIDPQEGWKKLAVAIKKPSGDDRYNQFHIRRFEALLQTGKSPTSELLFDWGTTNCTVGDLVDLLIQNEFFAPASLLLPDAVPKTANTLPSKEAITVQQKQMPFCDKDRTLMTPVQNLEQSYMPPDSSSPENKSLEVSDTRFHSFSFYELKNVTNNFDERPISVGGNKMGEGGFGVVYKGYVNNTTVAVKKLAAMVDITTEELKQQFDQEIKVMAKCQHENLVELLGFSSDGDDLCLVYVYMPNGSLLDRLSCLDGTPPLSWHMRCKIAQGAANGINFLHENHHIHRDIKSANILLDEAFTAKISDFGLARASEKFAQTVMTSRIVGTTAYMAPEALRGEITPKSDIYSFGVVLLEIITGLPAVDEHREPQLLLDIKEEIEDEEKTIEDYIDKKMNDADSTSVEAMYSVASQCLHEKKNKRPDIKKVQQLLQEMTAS
Description: The assays were performed in U-bottom 384-well plates. The final assay volume was 30 μL prepared from 15 μL additions of enzyme and substrates (fluoresceinated peptide and ATP) and test compounds in assay buffer (20 mM HEPES pH 7.2, 10 mM MgCl2, 0.015% Brij 35 and 4 mM DTT). The reaction was initiated by the combination of IRAK4 with substrates and test compounds. The reaction mixture was incubated at room temperature for 60 min. and terminated by adding 45 μL of 35 mM EDTA to each sample. The reaction mixture was analyzed on the Caliper LABCHIP 3000 (Caliper, Hopkinton, MA) by electrophoretic separation of the fluorescent substrate and phosphorylated product. Inhibition data were calculated by comparison to no enzyme control reactions for 100% inhibition and vehicle-only reactions for 0% inhibition. The final concentrations of reagents in the assays are ATP, 500 μM; FL-IPTSPITTTYFFFKKK peptide 1.5 μM; IRAK4, 0.6 nM; and DMSO, 1.6%.
Compound `CC(O)CCNC(=O)c1cnc2ccc(-c3cn[nH]c3)cc2c1NC1CC(F)(F)C1` (stereo not drawn) [US12492186, Example 54] has an IC50 of 17.6 nM.
With `CC(C)Nc1c(-c2cc(C3CCCCN3)no2)cnc2ccc(-c3cn[nH]c3)cc12` (stereo not drawn) [US12492186, Example 128] the IC50 was 4.8 nM.
In the case of `CC(O)CCNC(=O)c1cnc2ccc(-c3cn[nH]c3)cc2c1NCC(F)F` (stereo not drawn) [US12492186, Example 65], the IC50 is reported as 15.2 nM.

Source: BindingDB's records for patent US12492186 (Bristol Myers Squibb, 2025)
